These results are taken from PMC6369673, “Silent catalytic promiscuity in the high-fidelity terpene cyclase δ-cadinene synthase” (Organic & Biomolecular Chemistry, 2019).

Structures can show the parent of a compound that is named as a salt. Where two headings read alike, the source gives them in different places.

For series [1], the target named is T1, aristolochene synthase from Penicillium roqueforti (AS) (Penicillium roqueforti, UniProt Q03471).
T1 construct: made in house
The series is described as follows: Inhibition of aristolochene synthase, radiolabelled FDP assay. It counts as biochemical. As to the method:
(§1) Recombinant AS and ADS were prepared and purified according to previously published procedures[17],[18] and both (R)-11 and (S)-11 were tested as inhibitors using a standard radiolabelled assay involving conversion of tritium labelled FDP by each enzyme and scintillation counting of the pentane extractable products.[5b] Terpene synthases are known to efficiently bind cation-PPi pairs and inhibition was assessed both in the presence and absence of 250 μM diphosphate (Table 1). Synergistic inhibition of aza-analogues 11 with diphosphate has been observed previously for a variety of other terpene synthases.[5d],[13c],[14]
(§2) Kinetic data were fitted by non-linear regression to the Michaelis–Menten equation (v0 = kcat[E][S]/(KM + [S]). The mode of inhibition was determined by inspection of double reciprocal plots and observed to be competitive in all cases where inhibition was significant at low concentrations of 11. KI was determined from a plot of inhibitor concentration versus K′M/(kcat[E]) where K′M = KM(1 + [I]/KI). […]
(§3) 2. Steady-state kinetics of DCS-His6, ADS and AS.
(§4) Kinetic assays were carried out according to the standard, linear range, micro-assay procedure previously described.5 The reaction mixtures containing buffer, FDP and protein were prepared on ice in a total volume of 250 µL and were overlaid with ca. 0.8 mL of HPLC-grade hexane prior to incubation. The assay mixtures were initiated by addition of enzyme and incubated at room temp (30 °C) for 10 min. The reactions were immediately ice-cooled and quenched by addition of 200 µL of 100 mM EDTA (pH 8.5) and brief vortexing. The hexane overlay and two additional 1 mL hexane extracts were passed through a short pipette column containing silica gel. The column was washed with additional hexane (1 mL) and the combined filtrates were analysed by liquid scintillation counting using 15 mL of scintillation cocktail Ecoscint O. Steady-State kinetic parameters for DCS-His6 and mutants were obtained by direct fitting of the data to the Michaelis-Menten equation by nonlinear least squares regression in conjunction with the graphical procedures developed by Lineweaver-Burk using the commercial SigmaPlot package (Systat Software).

Series [2] concerns the target T2, δ-cadinene synthase (DCS-His6) (Gossypium arboreum, UniProt Q39761).
T2 construct: hexahistidine (His6) (C); made in house; host or cells: E. coli BL-21 (DE3)
T2 sequence (Q39761 1-554): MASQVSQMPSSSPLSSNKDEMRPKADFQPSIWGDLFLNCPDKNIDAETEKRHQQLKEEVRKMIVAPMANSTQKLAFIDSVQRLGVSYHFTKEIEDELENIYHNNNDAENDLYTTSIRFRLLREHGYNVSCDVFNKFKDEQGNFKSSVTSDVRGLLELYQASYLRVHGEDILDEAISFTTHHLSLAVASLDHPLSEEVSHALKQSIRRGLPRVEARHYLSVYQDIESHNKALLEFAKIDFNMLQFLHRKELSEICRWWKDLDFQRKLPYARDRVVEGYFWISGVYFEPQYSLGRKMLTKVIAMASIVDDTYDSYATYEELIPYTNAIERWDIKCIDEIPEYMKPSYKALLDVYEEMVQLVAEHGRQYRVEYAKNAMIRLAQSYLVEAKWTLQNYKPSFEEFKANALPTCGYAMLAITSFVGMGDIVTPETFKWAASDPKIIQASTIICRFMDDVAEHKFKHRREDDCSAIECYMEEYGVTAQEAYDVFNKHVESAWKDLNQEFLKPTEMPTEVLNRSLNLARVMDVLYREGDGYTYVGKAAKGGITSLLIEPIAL
Kind of series: Inhibition of δ-cadinene synthase, radiolabelled FDP assay. It counts as biochemical. The method, then: as §1
Kinetic data were fitted by non-linear regression to the Michaelis–Menten equation (v0 = kcat[E][S]/(KM + [S]). The mode of inhibition was determined by inspection of double reciprocal plots and observed to be competitive in all cases where inhibition was significant at low concentrations of 11. KI was determined from a plot of inhibitor concentration versus K′M/(kcat[E]) where K′M = KM(1 + [I]/KI).
Recombinant DCS was generated with a C-terminal hexahistidine tag (DCS-His6) as previously described.[19] Inhibition assays were carried out using the same protocol used for AS and ADS. […] DCS clearly requires a cation–anion pair in its active site for effective inhibition by aza-analogues. Our results provide strong evidence for 1,6-cyclase activity for DCS. […]
as §3, §4

Series [3] has as its target T3, amorpha-4,11-diene synthase (ADS) (Artemisia annua, UniProt Q9AR04).
T3 construct: made in house
The series is described as follows: Inhibition of amorpha-4,11-diene synthase, radiolabelled FDP assay. It counts as biochemical. The method, then:
as §1, §2, §3, §4

In another series the target is DCS. More on the design: method as in PMID 22397618. The following applies: cited from earlier work.
[4] abbreviates: K i (μM) (+250 μM PPi), +250 μM PPi.
[5] abbreviates: +250 μM PPi, read-out: K i (μM) (+250 μM PPi).

T1 sequence (Q03471 whole entry): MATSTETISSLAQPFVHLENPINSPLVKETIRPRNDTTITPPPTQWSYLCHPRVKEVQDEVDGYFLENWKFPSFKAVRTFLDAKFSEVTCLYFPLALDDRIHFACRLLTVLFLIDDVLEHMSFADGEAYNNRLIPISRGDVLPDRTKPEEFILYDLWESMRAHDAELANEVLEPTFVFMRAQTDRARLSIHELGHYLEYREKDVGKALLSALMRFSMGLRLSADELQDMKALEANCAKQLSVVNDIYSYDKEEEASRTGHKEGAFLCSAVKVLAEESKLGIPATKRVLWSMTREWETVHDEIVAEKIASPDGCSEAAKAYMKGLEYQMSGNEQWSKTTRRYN
T3 sequence (Q9AR04 whole entry): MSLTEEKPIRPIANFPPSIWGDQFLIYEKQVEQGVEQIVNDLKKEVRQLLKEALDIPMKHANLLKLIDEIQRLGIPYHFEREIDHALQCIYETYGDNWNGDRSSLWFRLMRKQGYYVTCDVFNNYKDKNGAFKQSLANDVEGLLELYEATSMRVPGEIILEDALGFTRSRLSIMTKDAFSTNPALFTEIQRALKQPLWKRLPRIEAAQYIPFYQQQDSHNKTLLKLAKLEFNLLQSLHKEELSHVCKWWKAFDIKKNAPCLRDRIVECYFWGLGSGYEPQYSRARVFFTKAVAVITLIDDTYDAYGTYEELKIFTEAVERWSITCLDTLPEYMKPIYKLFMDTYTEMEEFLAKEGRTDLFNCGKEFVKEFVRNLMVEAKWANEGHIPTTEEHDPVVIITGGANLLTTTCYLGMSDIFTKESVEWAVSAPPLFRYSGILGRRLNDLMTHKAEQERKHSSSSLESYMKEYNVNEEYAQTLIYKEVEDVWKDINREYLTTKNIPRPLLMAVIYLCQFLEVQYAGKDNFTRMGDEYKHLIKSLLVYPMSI

For the compound `CC(C)=CCCN(C)[C@@H]1CC=C(C)CC1` [(S)-11], the Ki in series [1] (setting [4]) is 255 ± 23 µM; in series [1] (K i (μM), absence of PPi) it was 295 ± 23 µM; in series [2] (setting [5]), 3.44 ± 1.43 µM; in series [2] (absence of PPi, read-out: K i), 273 ± 77 µM; in series [3] (setting [5]), 1.5 ± 0.5 µM; in series [3] (absence of PPi, read-out: K i), 25 ± 5 µM.
On to `CC(C)=CCCN(C)[C@H]1CC=C(C)CC1` [(R)-11], for which the Ki is 489 ± 62 µM in series [1] (setting [4]); 472 ± 48 µM in series [1] (K i (μM), absence of PPi); 2.5 ± 0.5 µM in series [2] (setting [5]); 1700 ± 300 µM in series [2] (absence of PPi, read-out: K i); 3.7 ± 1.9 µM in series [3] (setting [5]); 50 ± 17 µM in series [3] (absence of PPi, read-out: K i). Also, the Inhibition in words result in series [2] (in the absence of PPi) was “weak inhibitor”.
What is called melting point is the temperature, or range, at which the solid turns liquid. In the case of `CC(C)=CCCN(C)[C@@H]1CC=C(C)CC1` (as salt: hydrochloride) [(S)-11], the melting point lay in the range of 131 to 133 °C.
On to `CC(C)=CCCC(C)=C(F)CCC(C)=CCOP(=O)(O)OP(=O)(O)O` [6F-FDP, 6-fluorofarnesyl diphosphate], for which the Ki at DCS (DCS, 6F-FDP as substrate analogue) is 2.4 µM. In the series on DCS (pentane-extractable products), the “Products when incubated with DCS” value is given as “no detectable pentane-extractable products”.
